{"source": "patent US20230257373A1", "about": "“QUORUM SENSING INHIBITORS AND METHODS OF USE” (priority 2020, published 2023)", "key": {"V. campbellii LuxR [1]": {"target": "T1, V. campbellii LuxR (Vibrio harveyi, UniProt P21308)", "T1 construct": "expressed in transfected cells; host or cells: E. coli DH10B with pKM699 and reporter pJV064", "T1 sequence (P21308 whole entry)": "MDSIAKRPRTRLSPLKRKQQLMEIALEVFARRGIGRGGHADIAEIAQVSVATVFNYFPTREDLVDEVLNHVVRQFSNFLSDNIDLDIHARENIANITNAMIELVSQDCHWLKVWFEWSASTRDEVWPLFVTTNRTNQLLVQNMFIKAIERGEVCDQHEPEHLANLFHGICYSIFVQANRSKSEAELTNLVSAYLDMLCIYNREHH", "experiment": "E. coli dual-color bioassay (pKM699 LuxR, pJV064 reporter)", "assay_type": "cell-based", "text": "Previously, we developed a bioassay that consists of a dual-color fluorescent reporter plasmid that reports both LuxR activities: the luxCDABE promoter is activated by LuxR and drives expression of gfp, and the VIBHAR_05222 promoter is repressed by LuxR and drives expression of mCherry (van Kessel et al., 2013b) (FIG. 2A). We used this reporter plasmid in an E. coli strain that also contains a plasmid expressing LuxR from its native promoter.\nA bioassay was developed to monitor LuxR function that consists of a dual-color reporter plasmid (pJV064) that reports both activities: the luxCDABE promoter is activated by LuxR and drives expression of gfp, and the 05222 promoter is repressed by LuxR and drives expression of mCherry (van Kessel, Ulrich et al. 2013). This reporter plasmid was used in an E. coli strain that also contains a plasmid (pKM699) expressing LuxR from its native promoter. E. coli cultures containing these two plasmids were grown at 30° C. in LB medium with chloramphenicol (10 μg/ml) and tetracycline (10 μg/ml) to select for the two plasmids. Compounds were added to the cultures at a range of concentrations, and the cultures were incubated for 16 hours shaking at 30° C.\nThe dual-promoter fluorescence reporter assays were performed using E. coli strain DH10B containing two plasmids: 1) plasmid pJV064 containing the PluxC fused to GFP and P05222fused to mCherry to assess LuxR transcriptional regulation, and 2) plasmid pKM699 expressing V. campbellii luxR under control of its native promoter or empty vector pLAFR2."}, "V. campbellii": {"system": "V. campbellii", "experiment": "Growth of V. campbellii with inhibitor", "assay_type": "cell-based", "conditions": "high concentrations", "text": "(§1) Many sulfonamide-containing compounds are known to target the folate synthesis pathway in bacteria and inhibit growth (bacteriostatic), and thus these “sulfa drugs” have been used as broad-spectrum antibiotics for decades (Hammoudeh et al., 2013, Roland et al., 1979). […] We also tested the stability of the inhibitors in bacterial cultures and the timing of the inhibitory effect."}, "V. vulnificus": {"system": "V. vulnificus", "experiment": "Growth of V. vulnificus with inhibitor", "assay_type": "cell-based", "conditions": "high concentrations", "text": "as §1"}, "V. campbellii LuxR [2]": {"target": "T1, V. campbellii LuxR", "experiment": "qRT-PCR and western blots in wild-type V. campbellii", "assay_type": "cell-based", "text": "The Qstatin-treated regulon overlapped with the SmcR regulon by more than 50%, with similar gene expression fold-changes. […] This is important to note because LuxR and HapR proteins are known to autorepress their own expression. To test the effects of adding inhibitors to V. campbellii LuxR, we added 10A, 10B, and 10C to wild-type V. campbellii and used qRT-PCR and western blots to examine the effects on luxR transcript and protein levels. We also examined the transcript levels for luxC and 05222 genes that are directly activated or repressed by LuxR, respectively.\nAll PCR reactions were performed using Phusion HF polymerase (NEB). T4 polynucleotide kinase (T4 PNK) used in EMSAs and all other enzymes were purchased from NEB and used according to manufacturer's instructions. Site-directed mutagenesis for construction of plasmids expressing mutant proteins was carried out using the Agilent QuikChange II XL Site-Directed Mutagenesis Kit. All oligonucleotides were purchased from Integrated DNA Technologies (IDT).ALL plasmid constructs were confirmed by DNA sequencing (Eurofins). Cloning details for plasmids are available upon request. Western blot analysis was performed as previously described (van Kessel et al., 2013b), except that new anti-LuxR antibodies were generated through Cocalico against purified LuxR protein. In addition, the western blots were probed with anti-RpoB (Neoclone).\nThen cells were induced with 50 μM IPTG and grown under the same conditions until cells reached an OD600 of approximately 1, at which 5 mL of cells were collected by centrifugation and frozen in liquid N2. RNA was extracted using a Trizol/chloroform extraction protocol previously described (Rutherford et al., 2011). Quantitative real-time PCR (qRT-PCR) was performed as previously described (Chaparian et al., 2016). Samples were normalized to the internal standard hfq gene. The ΔΔCT values were used to analyze data from three independent biological replicates. Symbols on graphs represent the mean values and error bars represent the standard deviations. All statistical analysis was performed with functions from GraphPad Prism version 8."}, "[3]": {"system": "PluxC-gfp reporter in V. campbellii", "experiment": "PluxC-gfp reporter in V. campbellii strains", "conditions": "Vibrio campbellii"}, "LuxR": {"target": "LuxR (Vibrio harveyi, UniProt P21308)", "sequence (P21308 whole entry, the tested form may be a part)": "as the sequence (P21308 whole entry) above", "experiment": "EMSA DNA binding activity of LuxR", "assay_type": "biochemical, V. campbellii", "parameters": "made in house; host or cells: E. coli BL21(DE3)", "conditions": "saturating concentrations", "method": "We noted that Qstatin and PTSP are both predicted to bind in the putative ligand binding pocket of SmcR. It is currently unknown how Qstatin allosterically affects DNA binding through its interactions in the ligand binding domain. […] We therefore also assessed the effect of sulfonamide PTSP on the DNA binding activity of LuxR and SmcR in vitro. […] (Kim et al., 2018).\nSmcR and LuxR were purified as described previously. EMSAs were conducted as described previously using oligonucleotides corresponding to the luxC and vvpE promoter sequences. ITC analysis was conducted using purified LuxR or His-tagged SmcR, each in gel-filtration buffer (25 mM Tris pH 7.5, 300 mM NaCl, 0.5 mM EDTA, 1 mM DTT, 2% DMSO). All molecules analyzed were diluted in the same buffer. The samples were degassed for 10 min by vacuum aspiration. Titrations were performed on a Nano-ITC (TA Instruments). […] Thermograms were analyzed using NanoAnalyze software with the independent binding model."}, "[4]": {"system": "PluxC-gfp reporter in V. coralliilyticus", "experiment": "PluxC-gfp reporter in V. coralliilyticus strains"}}, "note": "Like-named read-outs stand apart in the source and are kept apart here."}
{"smiles": "O=S(=O)(c1cccs1)n1ccc(-c2ccccc2)n1", "note": "[Compound 10B]", "values": [{"measurement": "Inhibition of LuxR in the E. coli bioassay (in words)", "setting": "V. campbellii LuxR [1]; GFP and mCherry reporters", "result": "most potent"}, {"measurement": "Time after addition at which GFP production was blocked", "setting": "V. campbellii LuxR [1]; addition to the culture", "result": 120, "unit": "min"}, {"measurement": "Duration for which block of GFP production was maintained", "setting": "V. campbellii LuxR [1]; longest timepoint tested", "result": "≥ 16", "unit": "h"}, {"measurement": "IC50", "setting": "V. campbellii LuxR [1]; read-out: IC50 in the bioassay (approximate)", "result": "1000 to 2000", "unit": "nM"}, {"measurement": "Growth rate or growth yield", "setting": "V. campbellii", "result": "did not alter growth rate or growth yield"}, {"measurement": "Growth rate or growth yield", "setting": "V. vulnificus", "result": "did not alter growth rate or growth yield"}, {"measurement": "luxC transcripts", "setting": "V. campbellii LuxR [2]; qRT-PCR, to levels in a ΔluxR strain", "result": "significantly decreased"}, {"measurement": "05222 transcripts", "setting": "V. campbellii LuxR [2]; qRT-PCR, wild-type cultures", "result": "significantly increased"}, {"measurement": "LuxR protein level", "setting": "V. campbellii LuxR [2]; western blot, wild-type V. campbellii", "result": "visible increase"}, {"measurement": "IC50", "setting": "[3]; ATCC25920, read-out: Inhibition (IC50) of the PluxC-gfp reporter, Vcamp ATCC 25920", "result": 30, "unit": "nM"}, {"measurement": "IC50", "setting": "[3]; read-out: IC50, V. campbellii BB120, luxCDABE", "result": 140, "unit": "nM"}, {"measurement": "IC50", "setting": "[3]; read-out: IC50, V. campbellii, b235", "result": 350, "unit": "nM"}, {"measurement": "IC50", "setting": "[3]; read-out: Inhibition (IC50) of the PluxC-gfp reporter, Vcamp HY01", "result": 100, "unit": "nM"}, {"measurement": "DNA binding to LuxR", "setting": "LuxR", "result": "did not alter DNA binding"}, {"measurement": "IC50", "setting": "[4]; read-out: IC50, V. coralliilyticus OCN008, luxCDABE reporter plasmid", "result": 2200, "unit": "nM"}, {"measurement": "IC50", "setting": "[4]; read-out: Inhibition (IC50) of the PluxC-gfp reporter, Vcoral OCN 008", "result": 1430, "unit": "nM"}, {"measurement": "IC50", "setting": "[4]; read-out: Inhibition (IC50) of the PluxC-gfp reporter, Vcoral OCN 014", "result": 2370, "unit": "nM"}]}
